Reference: patent US8951563B2, “Antibiotic drug delivery and potentiation” (Technion Research & Development Foundation Limited, priority 2009, dated 2015)

Columns and labels:
Format in all cases: cell-based
[1] = system: E. coli AB301, wild type (efflux+); test: FIC index with sub-MIC OAK, E. coli AB301; details: sub-MIC C12K-7α8
Method: (§1) Bacteria were grown overnight in LB growth medium and diluted 10,000-fold in same medium.
(§2) Synergistic effect of the combinations was assessed by determination of the fractional inhibitory concentration (FIC) where FIC=(MIC OAK in combination with antibiotic)/(MIC OAK alone)+(MIC antibiotic in combination)/(MIC antibiotic alone). Synergy was determined for FIC 0.5.

[2] = system: E. coli 14384; test: Antibiotic MIC / chemo-sensitization checkerboard with OAK, E. coli 14384
Method: as §1
(§3) Inhibition of proliferation was determined by optical density measurements (620 nm) after incubation overnight at 37° C.
as §2

[3] = system: E. coli U-16329; test: Antibiotic MIC / chemo-sensitization checkerboard with OAK, E. coli U-16329; details: for MIC: Escherichia coli, U16329, OAK: None
Method: as §1, §3, §2

[4] = system: E. coli 14182; test: Antibiotic MIC / chemo-sensitization checkerboard with OAK, E. coli 14182
Method: as §1, §3, §2

[5] = system: E. coli U-16327; test: Antibiotic MIC / chemo-sensitization checkerboard with OAK, E. coli U-16327; details: for MIC: Escherichia coli, U16327, OAK: None
Method: as §1, §3, §2

[6] = system: E. coli AG100A, ΔacrAB (efflux−); details: sub-MIC C12K-7α8
Method: as §1, §2

[7] = system: E. coli AG100, wild type (efflux+); details: sub-MIC C12K-7α8
Method: as §1, §2

[8] = system: E. coli N281, ribosomal mutation; test: FIC index with sub-MIC OAK, E. coli N281; details: sub-MIC C12K-7α8
Method: as §1, §2

[9] = antibiotic combined with C12K-7α8

SMILES | FIC [1] | Antibiotic MIC in presence of OAK ([2]; +1.7 μg/ml C12K-7α8 (¼ MIC)) | Antibiotic MIC in presence of OAK ([2]; +3.5 μg/ml C12K-7α8 (½ MIC)) | Antibiotic MIC in presence of OAK ([2]; +[…] C12K-7α8 (⅓ MIC)) | FIC [2, 9] | Antibiotic MIC in presence of OAK ([3]; +3.5 μg/ml C12K-7α8 (½ MIC)) | Antibiotic MIC in presence of OAK ([3]; +[…] C12K-7α8 (⅓ MIC)) | MIC [3] | FIC [3, 9] | Antibiotic MIC in presence of OAK ([4]; +1.7 μg/ml C12K-7α8 (¼ MIC)) | Antibiotic MIC in presence of OAK ([4]; +3.5 μg/ml C12K-7α8 (½ MIC)) | Antibiotic MIC in presence of OAK ([4]; +[…] C12K-7α8 (⅓ MIC)) | FIC [4, 9] | Antibiotic MIC in presence of OAK ([5]; +3.5 μg/ml C12K-7α8 (½ MIC)) | Antibiotic MIC in presence of OAK ([5]; +[…] C12K-7α8 (⅓ MIC)) | MIC [5] | FIC [5, 9] | FIC [6] | FIC [7] | FIC [8]
CC[C@H]1OC(=O)[C@H](C)[C@@H](O[C@H]2C[C@@](C)(OC)[C@@H](O)[C@H](C)O2)[C@H](C)[C@@H](O[C@@H]2O[C@H](C)C[C@H](N(C)C)[C@H]2O)[C@](C)(O)C[C@@H](C)C(=O)[C@H](C)[C@@H](O)[C@]1(C)O [Erythromycin, erythromycin] | 0.56 | 64 µg/mL | 8 µg/mL | 16 µg/mL | 0.39 | 16 µg/mL | 64 µg/mL | 256 µg/mL | 0.56 | 32 µg/mL | 4 µg/mL | 16 µg/mL | 0.46 | 16 µg/mL | 64 µg/mL | 512 µg/mL | 0.46 | 0.86 | 0.46 | 1.0
CC[C@H]1OC(=O)[C@H](C)[C@@H](O[C@H]2C[C@@](C)(OC)[C@@H](O)[C@H](C)O2)[C@H](C)[C@@H](O[C@@H]2O[C@H](C)C[C@H](N(C)C)[C@H]2O)[C@](C)(OC)C[C@@H](C)C(=O)[C@H](C)[C@@H](O)[C@]1(C)O [Clarithromycin, clarithromycin] | 0.56 |  |  |  |  |  |  | 128 µg/mL |  |  |  |  |  |  |  | 128 µg/mL |  | 0.75 |  | 1.0
